Target: [35S]-TBPS binding, rat brain cortical membranes
Test: Steroid inhibition of [35S]-TBPS binding
Conditions: Table 4, 3 nM [35S]-TBPS, in the presence of 5 mM GABA, read-out: TBPS IC50
Procedure, shortened: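 Washed P2 cortical membranes from Sprague-Dawley rats, in 200 mM NaCl/50 mM Na-K phosphate pH 7.4, incubated 90 min at room temp with 3 nM [35S]-TBPS, […] GABA and test drug (0.5% DMSO final). Nonspecific binding defined with […] unlabeled TBPS; filtration and scintillation counting. IC50 and Imax from non-linear curve fits, means±SEM of experiments.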

First: CC[C@]12CC[C@H]3[C@@H](CC[C@@H]4C[C@](C)(O)CCC[C@@]43C)[C@@H]1CC[C@@H]2C(C)=O [Example 29, 1-((1S,3aS,3bR,5aR,7R,10aS,10bS,12aS)-12a-ethyl-7-hydroxy-7,10a-dimethyloctadecahydrocyclohepta[a]cyclopenta[f]naphthalen-1-yl)ethanone]
Second: CC[C@@]1(O)CCC[C@@]2(C)[C@H](CC[C@@H]3[C@@H]2CC[C@]2(C)[C@@H](C(C)=O)CCC[C@@H]32)C1 [Example 37, 1-((1S,4aS,4bR,6aR,8R,11aS,11bS,13aS)-8-ethyl-8-hydroxy-11a,13a-dimethyloctadecahydro-1H-cyclohepta[a]phenanthren-1-yl)ethanone]
The IC50 of the first is lower: less than 100 nM for the first, 100 to 1000 nM for the second.

Compared with `CC[C@]12CC[C@@](C)(O)CC[C@H]1CC[C@H]1[C@@H]3CC[C@H](C(=O)Cn4cc(C#N)cn4)[C@@]3(C)CC[C@@H]12` [Example 26], `CC[C@]12CC[C@@](C)(O)C[C@H]1CC[C@H]1[C@@H]3CCCC[C@H](C(=O)Cn4cc(C#N)cn4)[C@@]3(C)CC[C@@H]12` [Example 24] is lower in IC50: 100 to 1000 nM for the first, less than 100 nM for the second.

`CC(=O)[C@H]1CCC[C@H]2[C@@H]3CC[C@@H]4CC[C@](C)(O)CC[C@@H]4[C@H]3CC[C@]12C` [Example 1, 1-((1S,4aS,4bR,6aR,9S,11aS,11bR,13aS)-9-hydroxy-9,13a-dimethyloctadecahydro-1H-cyclohepta[a]phenanthren-1-yl)ethan-1-one] and `CC[C@@]1(O)CCC[C@H]2[C@H](CC[C@@H]3[C@@H]2CC[C@]2(C)[C@H](C(C)=O)CCC[C@@H]32)C1` [Example 36, 1-((1R,4aS,4bR,6aR,8R,11aS,11bR,13aS)-8-ethyl-8-hydroxy-13a-methyloctadecahydro-1H-cyclohepta[a]phenanthren-1-yl)ethenone] cannot be ordered by IC50: greater than 1000 nM for the first, greater than 1000 nM for the second.

First: CC[C@]12CC[C@H]3[C@@H](CC[C@@H]4C[C@](C)(O)CCC[C@@]43C)[C@@H]1CC[C@@H]2C(=O)Cn1cc(C#N)cn1 [Example 30, 1-(2-((1S,3aS,3bR,5aR,7R,10aS,10bS,12aS)-12a-ethyl-7-hydroxy-7,10a-dimethyloctadecahydrocyclohepta[a]cyclopenta[f]naphthalen-1-yl)-2-oxoethyl)-1H-pyrazole-4-carbonitrile]
Second: CC[C@@]1(O)CCC[C@@]2(C)[C@@H](CC[C@@H]3[C@@H]2CC[C@]2(C)[C@@H](C(=O)Cn4cc(C#N)cn4)CCC[C@@H]32)C1 [Example 42, 1-(2-((1S,4aS,4bR,6aS,8R,11aS,11bS,13aS)-8-ethyl-8-hydroxy-11a,13a-dimethyloctadecahydro-1H-cyclohepta[a]phenanthren-1-yl)-2-oxoethyl)-1H-pyrazole-4-carbonitrile]
The IC50 of the first is lower: less than 100 nM for the first, 100 to 1000 nM for the second. The first is the more potent here.

Compared with `CC[C@@]1(O)CCC[C@H]2[C@H](CC[C@@H]3[C@@H]2CC[C@]2(C)[C@@H](C(=O)Cn4cc(C#N)cn4)CCC[C@@H]32)C1` [Example 14, 1-(2-((1S,4aS,4bR,6aR,8R,11aS,11bR,13aS)-8-ethyl-8-hydroxy-13a-methyloctadecahydro-1H-cyclohepta[a]phenanthren-1-yl)-2-oxoethyl)-1H-pyrazole-4-carbonitrile], `CC[C@]1(O)CC[C@H]2CC[C@@H]3[C@H](CC[C@]4(C)[C@H](C(=O)Cn5cc(C#N)cn5)CCC[C@@H]34)[C@H]2CC1` [Example 48, 1-(2-((1R,4aS,4bR,6aR,9S,11aS,11bR,13aS)-9-ethyl-9-hydroxy-13a-methyloctadecahydro-1H-cyclohepta[a]phenanthren-1-yl)-2-oxoethyl)-1H-pyrazole-4-carbonitrile] is higher in IC50: 100 to 1000 nM for the first, greater than 1000 nM for the second. The first is the more potent here.

`Cc1nnn(CC(=O)[C@@H]2CCCC[C@H]3[C@@H]4CC[C@@H]5C[C@](C)(O)CCC[C@]5(C)[C@H]4CC[C@]23C)n1` [Example 64] and `C[C@]1(O)CC[C@H]2CC[C@@H]3[C@H](CC[C@]4(C)[C@@H](C(=O)Cn5cc(C#N)cn5)CCC[C@@H]34)[C@H]2CC1` [Example 4, 1-(2-((1S,4aS,4bR,6aR,9S,11aS,11bR,13aS)-9-hydroxy-9,13a-dimethyloctadecahydro-1H-cyclohepta[a]phenanthren-1-yl)-2-oxoethyl)-1H-pyrazole-4-carbonitrile] fall in the same range of IC50: 100 to 1000 nM for the first, 100 to 1000 nM for the second.

Same assay, conditions: Table 5, 3 nM [35S]-TBPS, in the presence of 5 mM GABA, read-out: TBPS IC50

Compared with `CC(=O)[C@H]1CC[C@H]2[C@@H]3CC[C@H]4C[C@](C)(O)CC[C@@H]4[C@H]3CC[C@@H]21` [Example 72, 1-((3R,5S,8R,9R,10S,13S,14S,17S)-3-hydroxy-3-methylhexadecahydro-1H-cyclopenta[a]phenanthren-17-yl)ethanone], `CC(=O)[C@H]1CCC[C@H]2[C@@H]3CC[C@H]4C[C@](C)(O)CC[C@@H]4[C@H]3CC[C@@H]21` [Example 79, 1-((1S,4aS,4bR,6aS,8R,10aS,10bR,12aS)-8-hydroxy-8-methyloctadecahydrochrysen-1-yl)-ethanone] is lower in IC50: greater than 1000 nM for the first, 100 to 1000 nM for the second.

`Cc1nnn(CC(=O)[C@H]2CC[C@H]3[C@@H]4CC[C@H]5C[C@](C)(O)CC[C@@H]5[C@H]4CC[C@@H]32)n1` [Example 73, 1-((3R,5S,8R,9R,10S,13S,14S,17S)-3-hydroxy-3-methylhexadecahydro-1H-cyclopenta[a]phenanthren-17-yl)-2-(5-methyl-2H-tetrazol-2-yl)ethanone] and `CC(=O)[C@@H]1CCC[C@H]2[C@@H]3CC[C@@H]4C[C@](C)(O)CC[C@@H]4[C@H]3CC[C@@H]21` [Example 75, 1-((1R,4aS,4bR,6aR,8R,10aS,10bR,12aS)-8-hydroxy-8-methyloctadecahydrochrysen-1-yl)-ethanone] cannot be ordered by IC50: greater than 1000 nM for the first, greater than 1000 nM for the second.

Same assay, conditions: Table 6, 3 nM [35S]-TBPS, in the presence of 5 mM GABA, read-out: IC50

`CC[C@]12CC[C@H]3[C@@H](CC[C@@H]4C[C@](C)(O)CC[C@@]43C3CC3)[C@@H]1CC[C@@H]2C(=O)Cn1nnc(C)n1` [Example 91, 1-((3R,5R,8S,9S,10R,13S,14S,17S)-10-cyclopropyl-13-ethyl-3-hydroxy-3-methylhexadecahydro-1H-cyclopenta[a]phenanthren-17-yl)-2-(5-methyl-2H-tetrazol-2-yl)ethanone] and `CC(=O)[C@H]1CCC[C@H]2[C@@H]3CC[C@@H]4C[C@](C)(O)CC[C@]4(C4CC4)[C@H]3CC[C@]12C` [Example 85, 1-((1S,4aS,4bS,6aR,8R,10aR,10bS,12aS)-10a-cyclopropyl-8-hydroxy-8,12a-dimethyloctadecahydrochrysen-1-yl)ethan-1-one] cannot be ordered by IC50: less than 100 nM for the first, less than 100 nM for the second.
